Assay results taken from patent US8318792B2, “Therapeutic agent for amyotrophic lateral sclerosis” (Nippon Medical School Foundation, priority 2006, dated 2012).

How the values were obtained:
Format in all cases: in vivo, mouse
G1H-G93A transgenic mice [1] = assay: Exercise tolerance test: extension reflex test; conditions: for Extension reflex test score: 5 mg/kg oral daily from 80th day (before onset), score 0-2, 5 mg/kg
Procedure: (§1) The following five kinds of exercise tolerance tests were conducted every fifth day from the 70th day after birth to evaluate the ability to exercise in the respective exercise tolerance tests. That is, the days for the exercise tolerance tests were every fifth days, such as the 70th day, 75th day, 80th day, 85th day and so on, after birth. The exercise tolerance tests were conducted throughout the survival period, and the post-mortem evaluation was based on the definitions of the following five kinds of exercise tolerance tests.
As for extension reflex, extension of the hindlimbs is normally observed when a mouse is suspended in the air by its tail.
The evaluation of extension reflex test of the mice was performed based on the following criteria: Score 0=Extension reflex is recognized in both of the hindlimbs; Score 1=Extension reflex is recognized only one hindlimb; and Score 2=Extension reflex is not recognized in both of the hindlimbs. The post-mortem evaluation of the extension reflex test is defined as score 2.

G1H-G93A transgenic mice [2] = assay: Exercise tolerance test: footprint test; conditions: 5 mg/kg oral daily from 80th day (before onset), score 0-4
Procedure: as §1
Both hindlimbs of a mouse are dipped in a black ink bottle, and then the mouse is allowed to walk on white paper. The footprints of the two hindlimbs of the mouse after the walking are analyzed. […] The post-mortem evaluation of the footprint test is defined as score 4.

G1H-G93A transgenic mice [3] = assay: Histopathological study: number of spinal cord anterior horn cells; conditions: end stage; for difference to placebo group in number of spinal cord anterior horn cells (cervical, thoracic or lumbar segment): P>0.05, Mann-Whitney's U test; for number of spinal cord anterior horn cells in the cervical segment / number of spinal cord anterior horn cells in the lumbar segment / number of spinal cord anterior horn cells in the thoracic segment: per five HE sections, average±SD
Procedure: The mouse supplied to the experiment is anesthetized by intraperitoneal injection of pentobarbital sodium in an amount of 1 mL per kg of the mouse body weight. After confirming that the mouse is completely under anesthesia, laparotomy and thoracotomy are performed, and blood is completely removed from the visceral organs of the whole body by perfusion of physiological saline at 37° C. via the left ventricle and aorta. The complete removal of blood from the visceral organs of the whole body is carried out by confirming complete removal of the blood of the aorta in the thoracic part and abdominal part, mesenteric arteries, liver, kidneys, and small arteries on the surfaces of the stomach, small intestine and large intestine under direct visual inspection. Subsequently, perfusion of 50 mL of physiological saline at 37° C. is performed. Immediately thereafter, the perfusion is performed with a fixative (4% paraformaldehyde supplemented with 0.1 M cacodylate buffer, pH 7.4). The spinal cord is removed and re-fixed with the same fixative for 18 hours. After the fixation of spinal cord tissue, each spinal cord segments is cut out to examine the spinal cord tissue. For the detailed analyses of spinal cord tissues, two segments of the cervical spinal cord (upper and lower cervical segments), three segments of the thoracic spinal cord (upper, middle, and lower thoracic segments), and two segments of lumbar spinal cord (upper and lower lumbar segments) were cut out to provide seven segments in total. Each spinal cord segments are respectively embedded in paraffin to produce paraffin blocks, and then cut into paraffin sections having a thickness of 5 μm using a microtome. The paraffin sections are subjected to hematoxylin and eosin (HE) staining.
For a quantitative analysis, serial 25 paraffin sections having a thickness of 5 μm were produced in series from the respective segment paraffin blocks of the spinal cord, and the 1st section, 7th section, 13th section, 19th section and 25th section were selected and subjected to HE staining. Specifically, paraffin sections were selected such that one paraffin section was taken at a […], and 5 HE preparations were produced from a single spinal cord segments. Therefore, 10 HE preparations from two areas for the entire cervical spinal cord, 15 HE preparations from three areas for the entire thoracic spinal cord, and 10 HE preparations from two areas for the entire lumbar spinal cord, were produced.
In order to calculate the number of motor neurons in the anterior horn, all of the HE stained sections were observed under a light microscope (BX41: Olympus Corp., Tokyo, Japan) equipped with a 3CCD digital color camera system for the microscope (FX380: Olympus Corp., Tokyo, Japan). Subsequently, photographs of the anterior horn region (corresponding to VII, VIII and IX Rexed areas) in the HE stained sections of the respective myelomere tissues of the spinal cord were taken, and the images were analyzed using an image analysis-filing software (FLVFS-LS Ver. 1.12: Olympus Corp., Tokyo, Japan). In regard to the definition of the motor neuron in the anterior horn of spinal cord (spinal cord anterior horn cells), cells in the HE stained sections, which have a nucleus carrying a definite nucleolus and contain a cell body having a diameter of 25 μm or more, were selected as the spinal cord anterior horn cells (Klivenyi P, et al., Nature Med 1999; 5:347-351, Kong J & Xu Z, J Neurosci 1998; 18:3241-3250, and Stephens B, et al., Neuropathol Appl Neurobiol 2001; 27:352-361). Based on this definition, the number of spinal cord anterior horn cells was counted for each of the HE stained sections. The respective numbers of spinal cord anterior horn cells in the cervical spinal cord, thoracic spinal cord and lumbar spinal cord of one mouse was calculated from the total number of spinal cord anterior horn cells in five HE stained sections. […]

[4] = 5 mg/kg oral daily from 80th day after birth (before onset)
[5] = 5 mg/kg oral daily from the day of onset (after onset)

## CC(C)(C)COc1ccc(-n2cc(C(=O)O)cn2)cc1C#N [compound (a), 1-[3-cyano-4-(2,2-dimethylpropoxy)phenyl]-1H-pyrazole-4-carboxylic acid]
G1H-G93A transgenic mice [1]; 70th day after birth
  Extension reflex test score: 0.0±0.0
G1H-G93A transgenic mice [1]; 75th day after birth
  Extension reflex test score: 0.0±0.0
G1H-G93A transgenic mice [1]; 80th day after birth
  Extension reflex test score: 0.0±0.0
G1H-G93A transgenic mice [1]; 85th day after birth
  Extension reflex test score: 0.0±0.0
G1H-G93A transgenic mice [1]; 90th day after birth
  Extension reflex test score: 0.0±0.0
G1H-G93A transgenic mice [1]; 95th day after birth
  Extension reflex test score: 0.0±0.0
G1H-G93A transgenic mice [1]; 100th day after birth
  Extension reflex test score: 0.0±0.0
G1H-G93A transgenic mice [1]; 105th day after birth
  Extension reflex test score: 0.0±0.0
G1H-G93A transgenic mice [1]; 105th, 110th, 115th and 120th day, 5 mg/kg oral daily from 80th day after birth, Mann-Whitney's U test
  effect in extension reflex test as compared to placebo group: significant effects
G1H-G93A transgenic mice [1]; 110th day after birth
  Extension reflex test score: 0.1±0.3
G1H-G93A transgenic mice [1]; 115th day after birth
  Extension reflex test score: 0.5±0.5
G1H-G93A transgenic mice [1]; 120th day after birth
  Extension reflex test score: 0.9±0.7
G1H-G93A transgenic mice [1]; 125th day after birth
  Extension reflex test score: 1.5±0.5
G1H-G93A transgenic mice [1]; 130th day after birth
  Extension reflex test score: 1.9±0.3
G1H-G93A transgenic mice [1]; 135th day after birth
  Extension reflex test score: 2.0±0.0
G1H-G93A transgenic mice [1]; 140th day after birth
  Extension reflex test score: 2.0±0.0
G1H-G93A transgenic mice [2]; 70th day after birth
  Footprint test score: 0.0±0.0
G1H-G93A transgenic mice [2]; 75th day after birth
  Footprint test score: 0.0±0.0
G1H-G93A transgenic mice [2]; 80th day after birth
  Footprint test score: 0.0±0.0
G1H-G93A transgenic mice [2]; 85th day after birth
  Footprint test score: 0.0±0.0
G1H-G93A transgenic mice [2]; 90th day after birth
  Footprint test score: 0.0±0.0
G1H-G93A transgenic mice [2]; 95th day after birth
  Footprint test score: 0.0±0.0
G1H-G93A transgenic mice [2]; 100th day after birth
  Footprint test score: 0.0±0.0
G1H-G93A transgenic mice [2]; 105th day after birth
  Footprint test score: 0.0±0.0
G1H-G93A transgenic mice [2]; 110th day after birth
  Footprint test score: 0.1±0.3
G1H-G93A transgenic mice [2]; 115th day after birth
  Footprint test score: 0.6±0.7
G1H-G93A transgenic mice [2]; 120th day after birth
  Footprint test score: 1.8±0.9
G1H-G93A transgenic mice [2]; 125th day after birth
  Footprint test score: 2.8±0.4
G1H-G93A transgenic mice [2]; 130th day after birth
  Footprint test score: 3.4±0.5
G1H-G93A transgenic mice [2]; 135th day after birth
  Footprint test score: 3.9±0.3
G1H-G93A transgenic mice [2]; 140th day after birth
  Footprint test score: 4.0±0.0
G1H-G93A transgenic mice [3]; [4]
  difference to placebo group in number of spinal cord anterior horn cells (cervical, thoracic or lumbar segment): no significant difference
  number of spinal cord anterior horn cells in the cervical segment: 3.3±3.1
  number of spinal cord anterior horn cells in the lumbar segment: 3.7±3.3
  number of spinal cord anterior horn cells in the thoracic segment: 1.6±2.1
G1H-G93A transgenic mice [3]; [5]
  difference to placebo group in number of spinal cord anterior horn cells (cervical, thoracic or lumbar segment): no significant difference
  number of spinal cord anterior horn cells in the cervical segment: 4.8±3.7
  number of spinal cord anterior horn cells in the lumbar segment: 4.1±4.4
  number of spinal cord anterior horn cells in the thoracic segment: 2.3±2.2
